Data reported in patent US20150158914A1, “PEPTIDES, CONSTRUCTS AND USES THEREFOR” (priority 2010, published 2015).
“Also recorded” adds a separate entry of the source.

System: X-protein
Experiment: X-protein-mediated apoptosis of HepG2 transfectants (annexin-V staining)
Type: cell-based, hepatitis B virus
Conditions: 10 μM peptide at 3 h, 3 and 24 h, or 3, 24 and 48 h, 51 h culture, listed as oligomerization domain peptide (aa 16-35)
Procedure: No PSG antibiotic was added to the medium as it can interfere with transfection efficiency. The medium was then removed and replaced with opti-MEM medium without 10% FCS. The amount of plasmid DNA used for transfection was […]. Firstly, 0.2 μg of either pcDNA3.1-HBX or pcDNA3-HBX Myc plasmid DNA was mixed with 25 μl of Opti-MEM medium, and then 0.2 μl of polymag transfection reagent was added (these solutions were prepared as a master mixes—the amounts mentioned are indicative for one well). The mixture was incubated for 20 min and then 25 μl added to the cells. The plate was placed onto a magnetic plate on a rotating platform for 20 min, and then the cells incubated for 3 h.
Cells were transfected with X-protein plasmid vectors as described above. After 3 h of transfection on the magnetic plate, the oligomerization domain peptide aa 16-35 or the control X-protein peptide aa 140-153 were added at a final concentration of 10 μM to the cells in MEM without 10% FCS, and cells incubated for either 3 h, 21 h, or 45 h. Peptides were added to MEM without FCS as serum can rapidly degrade small peptides. […]
A drop of mounting solution with DAPI was added to the cells, and covered with a cover slip. Slides were examined by fluorescence microscopy by using a Nikon E600 fluorescent microscope and photos were taken using Nikon ACT-1 software. […]

FITC-Acp-LCLRPVGAESRGRPVSGPFG [Peptide 16-35]
inhibition of full-length X-protein-mediated apoptosis (pCDNA3-HBX Myc transfectants): inhibited full-length X-protein-mediated apoptosis of HepG2 cells; also recorded: significantly reduced X-protein-mediated apoptosis in a dose-dependent fashion
inhibition of truncated X-protein-mediated apoptosis (pCDNA3.1-HBX transfectants): inhibited truncated X-protein-mediated apoptosis of HepG2 cells; also recorded: significantly reduced X-protein-mediated apoptosis in a dose-dependent fashion
